# Reference: US20180344715A1, “WNT/BETA-CATENIN SIGNAL TRANSDUCTION INHIBITORS AND THEIR USE IN TREATMENT OR PREVENTION OF DISEASES AND CONDITIONS LINKED WITH SAID TRANSDUCTION” (BERGEN TEKNOLOGIOVERFORING AS, priority 2015, published 2018)
# Tests used:
# Type in all cases: cell-based
# SW480 cells = test: Soft agar colony-formation assay, SW480; conditions: 10 days
# Procedure: The soft agar colony-formation assay was performed using the CellTransformation Assays kit (catalog no. CBA-130; Cell Biolabs, Inc.) according to the recommended protocol. […] Medium containing drugs was replaced every 3 d. For the clonogenic assay, positively transfected cells (wild-type and mutant GFP-SHPRH and control GFP) were enriched by FACS and were seeded in six-well plates at a density of 3,000 cells per well. Medium was changed every 3 d. On the last day colony growth was quantified by crystal violet staining and measurement of OD at 590 nm.
# MED23 = target: T1, MED23 (Homo sapiens, UniProt Q9ULK4); test: Chromatin immunoprecipitation (ChIP) of MED23 at Wnt target genes; conditions: SW480, 5 μM overnight
# T1 construct: endogenous in cells; host or cells: SW480
# T1 sequence (Q9ULK4 1-1368): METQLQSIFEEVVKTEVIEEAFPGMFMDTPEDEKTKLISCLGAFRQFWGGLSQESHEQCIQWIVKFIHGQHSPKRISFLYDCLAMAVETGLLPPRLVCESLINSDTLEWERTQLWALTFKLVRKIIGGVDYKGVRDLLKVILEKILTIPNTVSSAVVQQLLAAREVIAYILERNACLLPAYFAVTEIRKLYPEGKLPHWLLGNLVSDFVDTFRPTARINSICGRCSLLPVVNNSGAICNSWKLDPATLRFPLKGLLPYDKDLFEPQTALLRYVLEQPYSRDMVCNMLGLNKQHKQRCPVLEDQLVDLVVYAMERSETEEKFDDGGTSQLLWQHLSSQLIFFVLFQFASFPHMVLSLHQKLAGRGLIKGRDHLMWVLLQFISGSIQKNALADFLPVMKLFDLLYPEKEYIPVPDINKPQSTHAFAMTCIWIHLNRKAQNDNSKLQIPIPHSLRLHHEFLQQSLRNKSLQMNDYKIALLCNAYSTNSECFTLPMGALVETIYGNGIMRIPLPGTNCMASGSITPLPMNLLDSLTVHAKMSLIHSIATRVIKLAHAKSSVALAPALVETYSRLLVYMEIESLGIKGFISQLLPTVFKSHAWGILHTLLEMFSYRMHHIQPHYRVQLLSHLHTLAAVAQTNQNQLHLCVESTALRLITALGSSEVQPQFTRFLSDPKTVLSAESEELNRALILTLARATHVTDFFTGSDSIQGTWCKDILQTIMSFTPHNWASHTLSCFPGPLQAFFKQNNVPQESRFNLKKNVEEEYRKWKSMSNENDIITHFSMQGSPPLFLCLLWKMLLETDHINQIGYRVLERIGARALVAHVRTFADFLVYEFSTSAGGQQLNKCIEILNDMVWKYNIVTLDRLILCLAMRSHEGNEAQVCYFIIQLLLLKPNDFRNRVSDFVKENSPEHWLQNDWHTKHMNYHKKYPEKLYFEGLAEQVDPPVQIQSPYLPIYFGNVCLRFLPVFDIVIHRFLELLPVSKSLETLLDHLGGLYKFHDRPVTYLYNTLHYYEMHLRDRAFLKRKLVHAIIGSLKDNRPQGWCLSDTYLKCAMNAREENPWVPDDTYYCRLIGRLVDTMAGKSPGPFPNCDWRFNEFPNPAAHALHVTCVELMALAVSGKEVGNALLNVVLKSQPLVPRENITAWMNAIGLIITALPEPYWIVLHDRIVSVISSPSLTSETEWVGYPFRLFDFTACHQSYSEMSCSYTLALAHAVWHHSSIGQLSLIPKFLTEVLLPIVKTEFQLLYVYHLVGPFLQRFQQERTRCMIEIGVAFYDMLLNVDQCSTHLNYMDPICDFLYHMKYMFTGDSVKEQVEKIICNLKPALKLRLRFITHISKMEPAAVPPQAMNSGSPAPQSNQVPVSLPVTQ
# Procedure: ChIP was performed according to the protocol previously described with a few modifications on the crosslinking procedures (Ke, X. S. et al., 2009, PLoS One 4, e4687). […] The reaction was quenched with 1/50 volume of 2.5 M glycine. Cells were lysed and the nuclei were sonicated to fragments ranging from 200 bp to 500 bp. After saving 0.2% total chromatin for input DNA purification, sonicated lysates were equally divided to three tubes and immunoprecipitated with Protein G beads (Life technologies, 10004D) coupled with 5 μg mouse IgG (15381, Sigma), antibody against MED23(BD550429, clone D27-1805, BD Biosciences) and β-catenin (ab22656, clone 12F7, Abcam), respectively. The immunoprecipitated DNA was purified and examined by PCR described below.
# To determine the purified DNA from ChIP samples, quantitative PCR was performed with RT^2 SYBR Green/ROX PCR Master Mix and the PCR reactions were examined by 2% agarose gel electrophoresis. PCR primers were designed to cover the canonical TCF/β-catenin binding motifs of 6 randomly chosen β-catenin target genes (shown in FIG. 4c). The sequences and genomic locations (NCBI36/hg18) of PCR primers are listed below. GAPDH was used as a negative control.
# β-catenin = test: Immunofluorescence staining of β-catenin in SW480 cells; conditions: SW480, 5 μM, 24 hours
# Procedure: Cells were seeded singly on 12 mm glass coverslips in 24-well plates. At the second day, cells were washed with PBS, fixed in 4% PBS buffered paraformaldehyde at room temperature for 20 minutes, permeabilized in 0.5% Triton X-100 for 10 minutes, blocked in 100 mM glycine for 5 minutes and with PBS wash between each step. After blocking with 0.5% BSA/PBS for 15 minutes, cells were incubated with primary antibodies (β-catenin, ab16051, 1:1000, Abcam; Ki67, ab16667, clone SP6, 1:50, Abcam) in 0.5% BSA/PBS for 1 hour at room temperature. The FITC-labelled secondary antibody (Southern Biotech, 4050-02) was added for 45 minutes at room temperature. Coverslips were mounted in SlowFade® Diamond Antifade Mountant with DAPI (Life Technologies, S36964) on glass slides. Images were captured using the Qcapture Suite software with a Qimaging Exi Blue camera attached to a Leica DMRBE microscope.
structure (smiles),measurement,setting,value
"CNC(=O)c1ccccc1Sc1ccc2c(/C=C/c3ccccn3)n[nH]c2c1 [axitinib, N-Methyl-2-[[3-[(E)-2-pyridin-2-ylethenyl]-1H-indazol-6-yl]sulfanyl]benzamide]",colony growth,SW480 cells,strongly and dose-dependently inhibited
same,MED23 occupancy at TCF/LEF-binding motifs of Wnt target genes,MED23,reduced
same,cells with unequal distribution of nuclear β-catenin (β-catenin ACD),β-catenin,~19%
